Measured values from ChEMBL document CHEMBL1132461 (J Med Chem, 1999).
Numbered stars: 1 amine (or outer) side, 2 acyl side, 3 side chain; on linkers, the order of the positions; unused ones are H or OH. Bridge positions count the residues as written; N and C are the ends. Square brackets hold non-standard residues; d marks the D form. Peptide text beside a SMILES is read from it. X2 = O=C([C@@H]1CC[C@@H]([*:3])N1[*:1])[*:2]; X1 = O=C([C@@H]1CC[C@H]([*:3])N1[*:1])[*:2]; hCys = N[C@@H](CCS)C(=O)O

Assays:
[1] = target: T1, Angiotensin II receptor (AT-1) type-1 (Rattus norvegicus, UniProt P29089+P25095); assay: In vitro inhibitory activity against rat Angiotensin II receptor, type 1 expressed in CHO cells; assay type: cell-based
T1 sequence (P29089 whole entry): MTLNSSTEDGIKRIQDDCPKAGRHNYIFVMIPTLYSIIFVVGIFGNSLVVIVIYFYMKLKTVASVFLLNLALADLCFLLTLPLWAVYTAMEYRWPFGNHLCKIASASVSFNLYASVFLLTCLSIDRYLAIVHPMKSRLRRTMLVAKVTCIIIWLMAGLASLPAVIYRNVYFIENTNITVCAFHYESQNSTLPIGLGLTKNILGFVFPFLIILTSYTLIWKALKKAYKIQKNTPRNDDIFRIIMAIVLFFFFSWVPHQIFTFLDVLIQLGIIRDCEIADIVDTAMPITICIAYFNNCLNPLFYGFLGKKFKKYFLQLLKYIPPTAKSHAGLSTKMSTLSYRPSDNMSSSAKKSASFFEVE
T1 sequence (P25095 whole entry): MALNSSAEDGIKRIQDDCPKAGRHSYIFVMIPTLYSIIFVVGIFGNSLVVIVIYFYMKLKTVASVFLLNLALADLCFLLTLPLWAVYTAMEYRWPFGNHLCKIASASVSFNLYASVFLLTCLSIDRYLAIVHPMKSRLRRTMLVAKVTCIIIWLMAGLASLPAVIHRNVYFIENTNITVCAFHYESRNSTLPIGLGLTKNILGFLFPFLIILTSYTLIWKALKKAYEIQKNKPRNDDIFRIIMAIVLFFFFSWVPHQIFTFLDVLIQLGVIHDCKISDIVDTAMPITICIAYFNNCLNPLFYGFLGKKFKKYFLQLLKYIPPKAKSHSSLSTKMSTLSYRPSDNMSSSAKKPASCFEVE

[2] = target: T1, Angiotensin II receptor (AT-1) type-1; assay: In vitro binding affinity against Angiotensin II receptor, type 1 from rat liver membranes

Row | SMILES | IC50 [1] | Ki [2]
1 | CC(C)[C@H](NC(=O)[C@H](CCCN=C(N)N)NC(=O)[C@@H](N)CC(=O)O)C(=O)N[C@@H](Cc1ccc(O)cc1)C(=O)N[C@H]1CS[C@@H]2CC[C@@H](C(=O)N[C@@H](Cc3ccccc3)C(=O)O)N2C(=O)[C@H](Cc2c[nH]cn2)NC1=O (H-DRVYCH[X2]F-OH; thioether 5-7) | > 10000 nM | –
2 | NC(N)=NCCC[C@H](NC(=O)[C@@H](N)CC(=O)O)C(=O)N[C@H]1CCS[C@H]2CC[C@@H](C(=O)N[C@@H](Cc3c[nH]cn3)C(=O)N3CCC[C@H]3C(=O)N[C@@H](Cc3ccccc3)C(=O)O)N2C(=O)[C@H](Cc2ccc(O)cc2)NC1=O (H-DR[hCys]Y[X1]HPF-OH; thioether 3-5) | 800 nM | 750 nM

Now from value to molecule:

Row | IC50 [1] | Ki [2] | SMILES
3 | > 10000 nM | – | NC(N)=NCCC[C@H](NC(=O)[C@@H](N)CC(=O)O)C(=O)N[C@H]1CS[C@@H]2CC[C@@H](C(=O)N[C@@H](Cc3c[nH]cn3)C(=O)N3CCC[C@H]3C(=O)N[C@@H](Cc3ccccc3)C(=O)O)N2C(=O)[C@H](Cc2ccc(O)cc2)NC1=O (H-DRCY[X2]HPF-OH; thioether 3-5)
4 | > 10000 nM | – | NC(N)=NCCC[C@H](NC(=O)[C@@H](N)CC(=O)O)C(=O)N[C@H]1CS[C@H]2CC[C@@H](C(=O)N[C@@H](Cc3c[nH]cn3)C(=O)N3CCC[C@H]3C(=O)N[C@@H](Cc3ccccc3)C(=O)O)N2C(=O)[C@H](Cc2ccc(O)cc2)NC1=O (H-DRCY[X1]HPF-OH; thioether 3-5)
5 | 0.2 nM | 0.19 nM | NC(N)=NCCC[C@H](NC(=O)[C@@H](N)CC(=O)O)C(=O)N[C@H]1CCSSCC[C@@H](C(=O)N[C@@H](Cc2c[nH]cn2)C(=O)N2CCC[C@H]2C(=O)N[C@@H](Cc2ccccc2)C(=O)O)NC(=O)[C@H](Cc2ccc(O)cc2)NC1=O (H-DR[hCys]Y[hCys]HPF-OH; disulfide 3-5)
